For one molecule, remaining binding results are on record in paper PMC7206119, “RIP1 inhibition blocks inflammatory diseases but not tumor growth or metastases” (Cell Death and Differentiation, 2019).

Common to all, as to test: biochemical
Common to all, as to design: DiscoverX kinase panel, active-site competition binding (KINOMEscan type), percent of control at one concentration
What all share (conditions): competition binding, percent of control

For one assay, the target named is T1, TRKB (Homo sapiens, UniProt Q16620).
T1 construct: gene NTRK2
An excerpt: (§1) To investigate the potential therapeutic benefit of inhibiting RIP1, we developed GNE684 or (S)-N-((S)-7-methoxy-1-methyl-2-oxo-2,3,4,5-tetrahydro-1H-pyrido[3,4-b]azepin-3-yl)-5-phenyl-6,7-dihydro-5H-pyrrolo[1,2-b][1,2,4]triazole-2-carboxamide with cross-species potency against RIP1, exquisite kinase selectivity, and favorable pharmacological properties (Fig. 1a–h, S1, Tables S1 and S2, SI file 1). […] (Fig. 1b, S1, and Table S1). […] GNE684 inhibited human RIP1 potently in vitro, and mouse and rat RIP1 with slightly less potency (Fig. 1d). Accordingly, it inhibited TNF-induced necroptosis in human HT-29, mouse L929, or rat H9c2 cells (Fig. 1e). The cellular potency of GNE684 was confirmed in a human whole blood assay using TBZ (TNF, IAP antagonist BV6, and pan-caspase inhibitor zVAD) or LZ (LPS plus zVAD) to trigger necroptosis and the release of IL-1α and IL-1β (Fig. 1f).

Another assay concerns the target FLT3(D835Y) (Homo sapiens, UniProt P36888, D835Y).
Excerpt: as §1

Assay [1] has as its target T2, JAK2(JH1domain-catalytic) (Homo sapiens, UniProt O60674).
T2 construct: JH1domain-catalytic
Excerpt: as §1

The target of assay [2] is T3, RSK2(Kin.Dom.1-N-terminal) (Homo sapiens, UniProt P51812).
T3 construct: gene RPS6KA3; Kin.Dom.1-N-terminal
Excerpt: as §1

A further assay addresses RET(V804M) (Homo sapiens, UniProt P07949, V804M).
Excerpt: as §1

The target in another assay is PHKG1 (Homo sapiens, UniProt Q16816).
Excerpt: as §1

Another assay addresses T4, YSK4 (Homo sapiens, UniProt Q56UN5).
T4 construct: gene MAP3K19
Excerpt: as §1

The next assay has as its target SBK1 (Homo sapiens, UniProt Q52WX2).
Excerpt: as §1

In assay [3] the target is T5, ABL1(E255K)-phosphorylated (Homo sapiens, UniProt P00519, E255K).
T5 construct: phosphorylated
Excerpt: as §1

In assay [4] the target is T6, ABL1(F317I)-phosphorylated (Homo sapiens, UniProt P00519, F317I).
T6 construct: phosphorylated
Excerpt: as §1

Assay [5] has as its target T7, RSK4(Kin.Dom.1-N-terminal) (Homo sapiens, UniProt Q9UK32).
T7 construct: gene RPS6KA6; Kin.Dom.1-N-terminal
Excerpt: as §1

Another assay concerns the target LCK (Homo sapiens, UniProt P06239).
Excerpt: as §1

For a further assay, the target named is LIMK2 (Homo sapiens, UniProt P53671).
Excerpt: as §1

The target in a further assay is PIK3CA(E545K) (Homo sapiens, UniProt P42336, E545K).
Excerpt: as §1

For assay [6], the target named is T8, ABL1(F317L)-nonphosphorylated (Homo sapiens, UniProt P00519, F317L).
T8 construct: nonphosphorylated
Excerpt: as §1

For the next assay, the target named is ULK3 (Homo sapiens, UniProt Q6PHR2).
Excerpt: as §1

The next assay addresses FLT3(D835H) (Homo sapiens, UniProt P36888, D835H).
Excerpt: as §1

In assay [7] the target is T9, RPS6KA5(Kin.Dom.2-C-terminal) (Homo sapiens, UniProt O75582).
T9 construct: Kin.Dom.2-C-terminal
Excerpt: as §1

Another assay deals with T10, IKK-epsilon (Homo sapiens, UniProt Q14164).
T10 construct: gene IKBKE
Excerpt: as §1

In another assay the target is FLT3(ITD) (Homo sapiens, UniProt P36888, ITD).
Excerpt: as §1

LIMK2, sequence (P53671 whole entry): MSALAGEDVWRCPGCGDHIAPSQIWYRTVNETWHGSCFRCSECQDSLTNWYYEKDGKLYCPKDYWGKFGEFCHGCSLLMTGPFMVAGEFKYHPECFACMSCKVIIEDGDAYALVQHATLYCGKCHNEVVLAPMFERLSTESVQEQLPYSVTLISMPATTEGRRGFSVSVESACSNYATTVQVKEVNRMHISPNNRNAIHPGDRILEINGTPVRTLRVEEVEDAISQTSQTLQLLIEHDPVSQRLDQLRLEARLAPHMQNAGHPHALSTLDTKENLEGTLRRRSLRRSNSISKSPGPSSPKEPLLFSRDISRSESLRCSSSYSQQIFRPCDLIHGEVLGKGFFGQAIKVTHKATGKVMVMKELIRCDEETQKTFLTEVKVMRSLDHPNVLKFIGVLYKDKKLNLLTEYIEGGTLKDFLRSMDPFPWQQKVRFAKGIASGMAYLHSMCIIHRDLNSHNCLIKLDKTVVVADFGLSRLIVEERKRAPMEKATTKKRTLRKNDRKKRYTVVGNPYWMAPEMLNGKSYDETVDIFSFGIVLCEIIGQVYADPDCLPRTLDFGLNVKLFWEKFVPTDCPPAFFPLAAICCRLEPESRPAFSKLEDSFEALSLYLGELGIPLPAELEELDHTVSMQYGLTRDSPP
T5 sequence (P00519 whole entry E255K): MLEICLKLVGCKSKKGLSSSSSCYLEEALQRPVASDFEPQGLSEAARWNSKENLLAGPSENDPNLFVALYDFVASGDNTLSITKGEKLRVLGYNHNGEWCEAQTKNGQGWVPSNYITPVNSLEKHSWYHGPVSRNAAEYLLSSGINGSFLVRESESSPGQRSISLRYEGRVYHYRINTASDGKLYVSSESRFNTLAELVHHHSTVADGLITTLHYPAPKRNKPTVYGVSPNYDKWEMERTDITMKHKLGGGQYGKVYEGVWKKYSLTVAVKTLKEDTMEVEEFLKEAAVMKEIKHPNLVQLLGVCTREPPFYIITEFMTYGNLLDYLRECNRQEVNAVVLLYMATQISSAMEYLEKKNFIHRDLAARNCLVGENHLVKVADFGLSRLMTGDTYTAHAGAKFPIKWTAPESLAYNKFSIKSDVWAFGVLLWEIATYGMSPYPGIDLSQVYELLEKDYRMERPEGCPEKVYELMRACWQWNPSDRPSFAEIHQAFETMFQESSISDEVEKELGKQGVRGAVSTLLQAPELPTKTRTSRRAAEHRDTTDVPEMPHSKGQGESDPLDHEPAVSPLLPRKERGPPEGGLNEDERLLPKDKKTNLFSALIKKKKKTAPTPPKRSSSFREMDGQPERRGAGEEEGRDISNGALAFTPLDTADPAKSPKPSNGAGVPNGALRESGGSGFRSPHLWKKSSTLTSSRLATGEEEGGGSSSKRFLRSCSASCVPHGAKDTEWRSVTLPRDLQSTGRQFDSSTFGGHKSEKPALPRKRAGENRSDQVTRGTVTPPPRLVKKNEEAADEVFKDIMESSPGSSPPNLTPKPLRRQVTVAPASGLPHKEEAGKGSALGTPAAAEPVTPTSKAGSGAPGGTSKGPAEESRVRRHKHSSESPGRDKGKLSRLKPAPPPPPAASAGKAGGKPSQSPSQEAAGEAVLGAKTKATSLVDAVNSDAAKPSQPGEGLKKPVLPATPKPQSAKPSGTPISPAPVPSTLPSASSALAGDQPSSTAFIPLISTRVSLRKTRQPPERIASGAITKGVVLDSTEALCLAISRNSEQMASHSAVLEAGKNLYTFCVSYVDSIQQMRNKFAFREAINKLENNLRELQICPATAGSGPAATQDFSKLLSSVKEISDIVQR
PIK3CA(E545K), sequence (P42336 whole entry E545K): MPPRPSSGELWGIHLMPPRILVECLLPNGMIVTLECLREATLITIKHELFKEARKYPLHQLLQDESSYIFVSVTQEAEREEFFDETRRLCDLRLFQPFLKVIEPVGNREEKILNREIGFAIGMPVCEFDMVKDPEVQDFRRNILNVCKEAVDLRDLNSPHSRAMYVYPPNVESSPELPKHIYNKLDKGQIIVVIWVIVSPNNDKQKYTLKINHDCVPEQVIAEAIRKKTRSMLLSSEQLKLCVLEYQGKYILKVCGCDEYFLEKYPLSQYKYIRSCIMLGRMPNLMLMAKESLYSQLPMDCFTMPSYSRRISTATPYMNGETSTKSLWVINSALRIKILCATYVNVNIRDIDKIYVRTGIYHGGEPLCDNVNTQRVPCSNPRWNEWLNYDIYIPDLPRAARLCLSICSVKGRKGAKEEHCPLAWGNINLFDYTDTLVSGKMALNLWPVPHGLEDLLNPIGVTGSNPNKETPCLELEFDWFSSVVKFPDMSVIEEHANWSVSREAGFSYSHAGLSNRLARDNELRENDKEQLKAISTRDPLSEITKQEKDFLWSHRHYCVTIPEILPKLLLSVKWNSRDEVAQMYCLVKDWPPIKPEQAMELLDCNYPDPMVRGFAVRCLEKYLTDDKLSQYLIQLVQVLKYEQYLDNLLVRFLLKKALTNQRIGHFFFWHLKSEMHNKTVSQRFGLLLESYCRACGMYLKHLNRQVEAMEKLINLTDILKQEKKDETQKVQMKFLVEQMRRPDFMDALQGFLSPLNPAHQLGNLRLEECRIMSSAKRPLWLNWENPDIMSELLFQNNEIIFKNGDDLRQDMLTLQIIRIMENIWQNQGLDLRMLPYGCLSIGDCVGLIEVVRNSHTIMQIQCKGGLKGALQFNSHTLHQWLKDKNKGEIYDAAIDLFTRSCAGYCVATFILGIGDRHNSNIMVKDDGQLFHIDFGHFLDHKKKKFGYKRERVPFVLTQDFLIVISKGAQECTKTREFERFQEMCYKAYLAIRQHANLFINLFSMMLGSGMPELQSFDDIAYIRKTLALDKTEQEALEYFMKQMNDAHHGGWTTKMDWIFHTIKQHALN
T9 sequence (O75582 whole entry): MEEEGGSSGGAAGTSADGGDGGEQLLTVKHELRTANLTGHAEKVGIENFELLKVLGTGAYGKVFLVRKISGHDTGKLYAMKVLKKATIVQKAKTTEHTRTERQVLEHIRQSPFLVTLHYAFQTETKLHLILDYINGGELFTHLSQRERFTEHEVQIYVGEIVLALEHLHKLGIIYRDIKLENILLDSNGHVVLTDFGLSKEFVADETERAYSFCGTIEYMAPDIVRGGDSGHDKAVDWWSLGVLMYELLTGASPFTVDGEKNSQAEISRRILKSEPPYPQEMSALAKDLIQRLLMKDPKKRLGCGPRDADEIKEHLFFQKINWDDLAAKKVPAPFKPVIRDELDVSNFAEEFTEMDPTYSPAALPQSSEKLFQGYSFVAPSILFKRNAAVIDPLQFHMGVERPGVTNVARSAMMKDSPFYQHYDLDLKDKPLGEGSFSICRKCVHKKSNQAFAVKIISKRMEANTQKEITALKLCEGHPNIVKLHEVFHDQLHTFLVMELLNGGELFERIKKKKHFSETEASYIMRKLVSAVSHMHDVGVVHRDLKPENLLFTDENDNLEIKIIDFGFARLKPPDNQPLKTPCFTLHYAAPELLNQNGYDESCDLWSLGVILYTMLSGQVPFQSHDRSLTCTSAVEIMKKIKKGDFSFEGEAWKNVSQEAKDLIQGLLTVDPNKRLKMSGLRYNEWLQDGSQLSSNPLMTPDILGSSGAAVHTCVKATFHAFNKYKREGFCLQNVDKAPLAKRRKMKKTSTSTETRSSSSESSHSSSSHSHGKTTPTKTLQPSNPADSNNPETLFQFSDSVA
T1 sequence (Q16620 whole entry): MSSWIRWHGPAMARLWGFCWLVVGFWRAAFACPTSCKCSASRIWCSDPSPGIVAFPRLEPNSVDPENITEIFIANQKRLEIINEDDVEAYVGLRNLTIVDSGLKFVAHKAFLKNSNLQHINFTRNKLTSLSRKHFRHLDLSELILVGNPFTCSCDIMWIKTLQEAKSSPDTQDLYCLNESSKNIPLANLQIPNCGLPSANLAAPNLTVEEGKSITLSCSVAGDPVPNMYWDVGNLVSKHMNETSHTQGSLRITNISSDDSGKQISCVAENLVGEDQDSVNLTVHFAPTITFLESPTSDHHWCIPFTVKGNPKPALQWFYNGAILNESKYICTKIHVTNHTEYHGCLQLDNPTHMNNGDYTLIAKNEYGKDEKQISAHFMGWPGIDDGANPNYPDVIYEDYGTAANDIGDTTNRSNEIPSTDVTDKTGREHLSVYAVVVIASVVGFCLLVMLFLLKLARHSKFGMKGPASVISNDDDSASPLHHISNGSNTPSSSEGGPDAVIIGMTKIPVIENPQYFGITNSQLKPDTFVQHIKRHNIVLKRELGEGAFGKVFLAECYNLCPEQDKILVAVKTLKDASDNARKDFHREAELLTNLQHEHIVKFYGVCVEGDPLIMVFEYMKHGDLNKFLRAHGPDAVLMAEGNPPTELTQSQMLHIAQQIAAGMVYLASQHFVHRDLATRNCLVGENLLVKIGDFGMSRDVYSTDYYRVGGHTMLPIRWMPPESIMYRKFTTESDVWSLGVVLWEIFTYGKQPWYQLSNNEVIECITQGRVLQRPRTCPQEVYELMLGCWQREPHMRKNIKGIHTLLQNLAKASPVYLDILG
ULK3, sequence (Q6PHR2 whole entry): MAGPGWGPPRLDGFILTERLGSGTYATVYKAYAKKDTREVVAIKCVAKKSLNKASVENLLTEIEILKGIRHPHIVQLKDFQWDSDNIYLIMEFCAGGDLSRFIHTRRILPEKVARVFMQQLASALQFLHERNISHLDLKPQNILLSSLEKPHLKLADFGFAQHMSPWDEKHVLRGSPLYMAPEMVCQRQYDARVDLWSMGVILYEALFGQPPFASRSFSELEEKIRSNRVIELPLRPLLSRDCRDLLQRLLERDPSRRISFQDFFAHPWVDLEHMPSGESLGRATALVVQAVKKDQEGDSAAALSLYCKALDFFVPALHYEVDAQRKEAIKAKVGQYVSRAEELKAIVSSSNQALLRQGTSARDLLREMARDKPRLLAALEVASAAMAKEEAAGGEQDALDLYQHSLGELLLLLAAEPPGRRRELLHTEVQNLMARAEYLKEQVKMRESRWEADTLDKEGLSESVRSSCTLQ
T8 sequence (P00519 whole entry F317L): as the sequence (P00519 whole entry E255K) above, with K255E, F317L counted along it
T6 sequence (P00519 whole entry F317I): as the sequence (P00519 whole entry E255K) above, with K255E, F317I counted along it

In the case of `COc1cc2c(cn1)N(C)C(=O)[C@@H](NC(=O)c1nc3n(n1)[C@H](c1ccccc1)CC3)CC2` [GNE684, (S)-N-((S)-7-methoxy-1-methyl-2-oxo-2,3,4,5-tetrahydro-1H-pyrido[3,4-b]azepin-3-yl)-5-phenyl-6,7-dihydro-5H-pyrrolo[1,2-b][1,2,4]triazole-2-carboxamide], the remaining binding at 10 µM on TRKB stood at 83%; on FLT3(D835Y), 100%; in assay [1], 100%; in assay [2], 65%; on RET(V804M), 100%; at PHKG1, 77%. In addition, the remaining binding at 10 µM on YSK4 is 92%; at SBK1, 100%; in assay [3], 91%; in assay [4], 100%; in [5], 100%; on LCK it was 86%. Moreover, the remaining binding at 10 µM came out at 32% at LIMK2; 55% on PIK3CA(E545K); 79% in [6]; 100% at ULK3; 94% at FLT3(D835H); 100% in [7]. Also, the remaining binding at 10 µM at IKK-epsilon was found to be 88%; on FLT3(ITD), 100%.
